Key:
BALB/C mice = assay: Test C: peptide stimulated DTH (delayed type hypersensitivity) in BALB/C mice; assay type: in vivo; details: DTH to ovalbumin, 3-day osmotic mini-pumps
Procedure: Test C: Peptide stimulated DTH (delayed type hypersensitivity) in BALB/C mice. […] Balbic female mice (18-20g), 5 per group, were immunised sub-cutaneously on the flank with 0.1 ml of an emulsion of ovalbumin (Sigma) (2mg/ml in saline) mixed 1:1 (v/v) with complete Freunds adjurant (Sigma). Seven days later footpad thickness was detemined using a dual caliper micrometer followed by a challenge in one hind footpad with a 30 μl sub-plantar injection of 1% heat-aggregated ovalbumin protein in saline. Twenty-four hours after antigen challenge, footpads were measured and the DTH response calculated as the percentage increase in footpad thickness in the injected footpad compared to contralateral control. Inhibitors were adminstered by 3-day osmotic mini-pumps (Alzet) implanted 24 hours prior to antigen challenge at doses ranging from 10 mg/kg/day to 0.1 μg/kg/day. The degree of inhibition was calculated by substracting the value for swelling of inhibitor treated footpads from that of the vehicle dosed controls, dividing by the control value and multiplying by 100%.

[1] = assay type: physicochemical; details: for aqueous stability at pH3: pH 3
Procedure: A typical procedure for measuring the stability of a peptide derivative of the present invention is as follows, in which, to minimize microbial contamination and degradation, all equipment that is used to prepare peptide solutions is sterilized in an autoclave and all material transfers carried out in a Class II laminar flow cabinet. Approximately 20 ml of Mcllvaine's citric acid-phosphate buffer solution at pH 3 or 7.6 containing 0.02% sodium azide is filtered into a 50 mL bottle using a sterile 0.22 μm filter unit and a 20 ml syringe. Approximately 1.2 mg of peptide is accurately weighed in a capped vial. Using a sterile pipette tip, sufficient buffer solution is added to the peptide in the vial to give a peptide concentration of 0.1 mg/ml. The vial is capped and shaken to dissolve the peptide. Using a sterile pipette tip, aliquots of approximately 1 ml of the peptide solution are transferred to 10 HPLC vials, which are then capped. 5 vials are stored at -18 and 37° C. The area of the peptide peak for the solution is determined by HPLC using appropriate standards initially and after storage at -18 and 37° C. for 1, 2, 3 and 4 weeks, using a fresh vial at each time point with duplicate sample injections. The percentage of peptide remaining after storage at 37° C. at each time point is determined from the ratio of the area of the peptide peak at each time point to the initial area. Preferred peptide derivatives of the present invention have greater than 90%, and preferably greater than 95%, of peptide remaining after storage at 37° C. at both pH 3 and 7.6.

HLA-DR2 = assay: Variant to Test A: peptide selectivity binding assay, HLA-DR2; set-up: species or system Human
Procedure: As a variant to test A, the ability of a peptide of the invention to bind to one or more HLA-DR molecules was assessed as follows:
(i) Purification of HLA-DR Types from Cell Lines
The method used was a modification of that described by Gorga et al, 1987, J.Biol.Chem. 262, 16087-16094. Human HLA-DR antigens were purified from various cell lines by immunoaffinity chromatography. […] Protein content was determined by a Biorad protein assay and purity by SDS-PAGE electrophoresis. […]
200 nM biotin-FHA307-320 in phosphate buffered saline (PBS) was incubated with either purified HLA-DR1, DR2, DR4Dw4, DR4Dw13 or DR4Dw14, (2-20μg/ml) in V-well microtitre plates (Nunc) with or without inhibitor peptides in assay buffer (PBS, 0.01% NP40 (Sigma.)) For DR3 inhibition, 400 nM Biotin-Ahx-(D)Ala-Ala-Ala-Che-lle-Ala-Ala-Ala-Thr-Leu-Lys-Ala-Ala-(D)Ala-OH was incubated with purified DR3 (20 μg/ml.), and incubated as above. After 48 hours, the incubates were treated, and absorbance readings taken as described in Test A. The inhibitory activity of peptides, expressed as IC50 values, was calculated using Microcal Origin software on a PC.

[2] = assay type: physicochemical
Procedure: Degradation of Dettide on in vitro release from an extruded polymer depot
A solution of McIlvaine's citric acid-phosphate buffer solution at pH 7.6 containing 0.02% sodium azide, is filtered through a 0.22 μfilter and stored at 4° C. Approximately 10 mg of extruded polymer depot containing peptide is placed in two small vials and 2 ml of the buffer solution added. The vials are then capped and stored in a water bath at 37° C. for a month. At suitable time points over a month, three 0.6ml aliquots of release medium are removed from each vial and either analysed by HPLC or stored frozen in an HPLC vial at -18° C. prior to analysis by HPLC. 1.8 ml of the buffer solution is added to each vial containing the depot to replace the release medium that has been removed at each time point.
The average amount of intact peptide in the release medium at each time point is determined by HPLC using duplicate sample injections by comparing the area of the peptide peak in the release media with the area of the peptide peak from standard buffer solutions of peptide at known concentrations. The approximate average amount of peptide degradation products in the release media at each time point is determined by HPLC by comparing the area of additional new peaks in the release media with the area of the peptide peak from standard buffer solutions of peptide at known concentrations and assuming the extinction coefficient has not changed. The average cumulative in vitro release profile of intact peptide and total peptide (intact peptide and peptide degradation products) is determined from the amounts of intact peptide and peptide degradation products in the release medium at each time point. Preferred peptides of the present invention show minimal degradation on in vitro release and thus show total peptide degradation products of less than 10% and preferably less than 5% of total peptide after a month of in vitro release into Mcllvaine's buffer solution at pH 7.6 at 37° C.

Substance | dose at which active in Test C (BALB/C mice) [mg/kg/day] | aqueous stability at pH3 [1] | aqueous stability at pH 7.6 [1] | binding to HLA-DR2 (HLA-DR2) | degradation on release from depot formulation [2]
Phv-Ala-Arg-Ala-IIb-Ala-Arg-Ala-Papa-NH2 [Example 23] | < 0.1 | good aqueous stability | good aqueous stability | bind significantly | minimal degradation on release
Phv-Arg-Ala-Ala-Ala-Val-IIb-Ala-Pip-NH2 [Example 5] | < 0.1 | good aqueous stability | good aqueous stability |  | minimal degradation on release
Phv-Gap(Me)4 -Ala-Ala-Ala-Thr-IIb-Ala-Papa-NH2 [Example 16] | < 0.1 | good aqueous stability | good aqueous stability |  | minimal degradation on release
